From US6066642A, “Dihydropyridine-, pyridine-, benzopyran-4-one- and triazoloquinazoline derivative, their preparation and their use as adenosine receptor antagonists” (priority 1998, dated 2000)
Like-named read-outs stand apart in the source and are kept apart here. One block for each compound: values may come before it.

Assays:
[1] = target: T1, A2a receptors (Rattus norvegicus, UniProt P30543); experiment: radioligand binding, displacement of specific [3H]CGS 21680 binding in rat striatal membranes; conditions: for inhibition at 100 µM: 10^-4 M
T1 construct: Displacement of specific [^3 H]; from tissue; host or cells: rat striatal membranes
Method: ^b Displacement of specific [^3 H]
or as a percentage of specific binding displaced at 100 μM.

[2] = target: T2, rat A3 receptor (Rattus norvegicus, UniProt P28647); experiment: A3-agonist-elicited inhibition of adenylyl cyclase in membranes from CHO cells stably expressing the rat A3 receptor; type: biochemical; conditions: compound 50 μM, 1 μM forskolin
T2 construct: expressed in transfected cells; host or cells: CHO cells (membranes)
T2 sequence (P28647 1-320): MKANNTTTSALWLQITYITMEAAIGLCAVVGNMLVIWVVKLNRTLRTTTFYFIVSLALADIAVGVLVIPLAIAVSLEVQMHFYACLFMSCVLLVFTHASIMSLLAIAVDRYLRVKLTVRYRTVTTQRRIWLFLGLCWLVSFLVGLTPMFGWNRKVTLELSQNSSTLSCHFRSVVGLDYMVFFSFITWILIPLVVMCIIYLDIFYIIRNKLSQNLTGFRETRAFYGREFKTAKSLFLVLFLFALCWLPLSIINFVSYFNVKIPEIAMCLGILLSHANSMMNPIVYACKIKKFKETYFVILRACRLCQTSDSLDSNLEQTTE
Method: ^a Assayed in membranes from CHO cells stably expressing the rat
A3 receptor in the presence of 1 μM forskolin.

[3] = target: T3, A1 receptors (Rattus norvegicus, UniProt P25099); experiment: biochemical; type: binding; conditions: for inhibition at 100 µM: 10^-4 M, read-out: displacement of specific binding rA1
T3 sequence (P25099 1-326): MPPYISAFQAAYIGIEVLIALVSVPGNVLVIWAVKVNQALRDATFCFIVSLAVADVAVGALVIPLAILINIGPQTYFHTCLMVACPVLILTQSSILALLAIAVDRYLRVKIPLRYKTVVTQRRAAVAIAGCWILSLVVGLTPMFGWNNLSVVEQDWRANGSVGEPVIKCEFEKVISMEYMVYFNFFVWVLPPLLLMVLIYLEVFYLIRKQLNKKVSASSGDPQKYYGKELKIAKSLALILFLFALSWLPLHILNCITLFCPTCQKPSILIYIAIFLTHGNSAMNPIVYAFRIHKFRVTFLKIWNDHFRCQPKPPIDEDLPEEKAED
Method: ^a Displacement of specific [^3 H] PIA binding in rat brain
percentage of specific binding displaced at 100 μM.

[4] = target: T4, human A3 receptors (Homo sapiens, UniProt P0DMS8); experiment: radioligand binding, displacement of specific [125I]AB-MECA binding at human A3 receptors expressed in HEK-293 cells; conditions: for Ki: [125I]AB-MECA; for inhibition at 100 µM: 10^-4 M
T4 construct: expressed in transfected cells; host or cells: HEK-293 cells (membranes)
T4 sequence (P0DMS8 1-318): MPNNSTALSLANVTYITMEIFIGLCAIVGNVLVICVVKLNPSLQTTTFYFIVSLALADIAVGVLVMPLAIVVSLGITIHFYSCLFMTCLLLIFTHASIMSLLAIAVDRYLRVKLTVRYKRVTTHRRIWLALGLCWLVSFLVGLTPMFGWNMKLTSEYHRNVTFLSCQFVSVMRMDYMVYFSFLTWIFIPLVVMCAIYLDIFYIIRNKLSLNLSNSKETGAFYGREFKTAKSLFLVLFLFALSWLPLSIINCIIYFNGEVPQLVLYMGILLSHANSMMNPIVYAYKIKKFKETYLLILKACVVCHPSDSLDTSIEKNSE
Method: A3 receptors expressed in HEK293 cells, in membranes, expressed as
binding displaced at 100 μM.

[5] = Table 3, [3H]CGS 21680, rat striatal membranes, read-out: Ki rA2a
[6] = IB-MECA 10^-6 M, read-out: % Inhibition of adenylyl cyclase, IB-MECA (10^-6 M)
[7] = IB-MECA 10^-7 M, read-out: % Inhibition of adenylyl cyclase, IB-MECA (10^-7 M)
[8] = Table 3, [3H]PIA, rat brain membranes, read-out: Ki rA1
[9] = Table 15, [3H]CGS 21680, rat striatal membranes, read-out: Ki rA2A
[10] = Table 15, [3H]PIA, rat brain membranes, read-out: Ki rA1
[11] = Table 15, HEK membranes, read-out: Ki hA3
[12] = Table 5, [3H]CGS 21680, rat striatal membranes, read-out: Ki rA2a
[13] = Table 5, [3H]PIA, rat brain membranes, read-out: Ki rA1
[14] = Table 6, [3H]CGS 21680, rat striatal membranes, read-out: K2 (rA2a)
[15] = Table 6, HEK-293 membranes, read-out: K2 (hA3)
[16] = Table 5, HEK-293 membranes, read-out: Ki hA3
[17] = Table 7, read-out: displacement of specific binding rA2A
[18] = Table 7, [3H]PIA, rat brain membranes, read-out: Ki (rA1)
[19] = Table 7, read-out: displacement of specific binding hA3
[20] = Table 6, [3H]PIA, rat brain membranes, read-out: K2 (rA1)
[21] = Table 7, [3H]CGS 21680, rat striatal membranes, read-out: Ki (rA2A)
[22] = Table 7, read-out: % of specific binding displaced hA3

T1 sequence (P30543 whole entry): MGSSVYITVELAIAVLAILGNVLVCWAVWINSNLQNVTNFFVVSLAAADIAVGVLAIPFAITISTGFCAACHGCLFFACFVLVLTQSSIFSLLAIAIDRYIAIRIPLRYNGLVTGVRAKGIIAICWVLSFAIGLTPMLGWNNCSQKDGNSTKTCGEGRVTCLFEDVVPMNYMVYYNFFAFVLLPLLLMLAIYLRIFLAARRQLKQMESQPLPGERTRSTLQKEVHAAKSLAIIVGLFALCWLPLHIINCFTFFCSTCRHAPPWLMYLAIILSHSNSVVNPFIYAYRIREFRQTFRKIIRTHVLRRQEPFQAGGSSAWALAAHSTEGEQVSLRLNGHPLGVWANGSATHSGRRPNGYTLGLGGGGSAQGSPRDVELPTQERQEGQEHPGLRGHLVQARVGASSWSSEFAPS

SMILES: CCOc1cc(OCC)c2c(=O)c(OCC)c(-c3ccccc3)oc2c1 [Compound 3a, 3,5,7-Triethoxyflavone]
Ki [1, 5]: 3310 nM
inhibition at 50 µM [2, 6]: 19.1 ± 7.4%
inhibition at 50 µM [2, 7]: 2.2 ± 2.2%
Ki [3, 8]: 603 nM

SMILES: CCOC(=O)c1c(C)nc(-c2ccccc2)c(C(=O)OCc2ccccc2)c1C#Cc1ccccc1 [B]
inhibition at 100 µM ([1]; Table 11, read-out: % inhibition rA2A): 43 ± 2%
Ki ([3]; Table 11, [3H]PIA, rat brain membranes, read-out: Ki rA1): 7010 ± 1980 nM
rA1/hA3 [4]: 2.6

SMILES: CCC(=O)Nc1nc2ccc(Cl)cc2c2nc(-c3ccco3)nn12 [Compound 146, 9-Chloro-2-(2-furyl)-5-propionylamino[1,2,4]triazolo[1,5-c]quinazoline]
Ki [1, 9]: 106 ± 30 nM
Ki [3, 10]: 283 ± 42 nM
Ki [4, 11]: 7.66 ± 3.03 nM
rA1/hA3 ([4]; Table 15, ratio of Ki): 40
rA2A/hA1 ([4]; Table 15, ratio of Ki): 14

SMILES: CCOc1c2ccoc2cc2oc(/C=C/c3ccccc3)cc(=O)c12 [Compound 20, 4-ethyloxy-7-trans-styryl-visnagin]
Ki [1, 12]: 33800 ± 14800 nM
inhibition at 50 µM [2, 6]: 40.9 ± 3.7%
inhibition at 50 µM [2, 7]: 21.2 ± 3.9%
Ki [3, 13]: 35600 ± 12700 nM

SMILES: COc1ccc(-c2cc(=O)c3c(O)cc(C)cc3o2)cc1 [Compound 29, reference compound]
Ki [1, 14]: 28000 ± 7350 nM
Ki ([3]; brain membranes, read-out: K2 (rA1)): 3400 ± 350 nM
Ki [4, 15]: 6700 ± 1780 nM

SMILES: O=C(Nc1nc2ccc(Cl)cc2c2nc(-c3ccco3)nn12)c1ccccc1 [Compound 151, 5-Benzoylamino-9-chloro-2-(2-furyl)[1,2,4]triazolo[1,5-c]quinazoline]
Ki [1, 9]: 349 ± 42 nM
Ki [3, 10]: 665 ± 82 nM
Ki [4, 11]: 4.05 ± 1.39 nM
rA1/hA3 ([4]; Table 15, ratio of Ki): 164
rA2A/hA1 ([4]; Table 15, ratio of Ki): 86

Ki [1, 9]: 173 nM
Ki [3, 10]: 91.3 ± 13.2 nM
Ki [4, 11]: 32 nM
SMILES: CC(C)(C)OC(=O)NCCCC(=O)Nc1nc2ccc(Cl)cc2c2nc(-c3ccco3)nn12 [Compound 154]

SMILES: COc1c2ccoc2cc2oc(/C=C/c3ccccc3)cc(=O)c12 [Compound 19, 4-methyloxy-7-trans-styryl-visnagin]
Ki [1, 12]: 11500 ± 1300 nM
Ki [3, 13]: 32600 ± 10500 nM
Ki [4, 16]: 8280 ± 2690 nM
rA1/hA3 ([4]; Table 5, ratio of Ki): 0.37

SMILES: O=c1c(O)c(-c2ccccc2)oc2cc(O)cc(O)c12 [Compound 1, galangin, reference compound]
Ki [1, 5]: 966 ± 164 nM
inhibition at 50 µM [2, 6]: 35.3 ± 7.2%
inhibition at 50 µM [2, 7]: 23.7 ± 5.1%
Ki [3, 8]: 863 ± 92 nM

inhibition at 100 µM [1, 17]: < 10%
Ki [3, 18]: 5550 ± 830 nM
inhibition at 100 µM [4, 19]: < 10%
SMILES: COc1cc2c3c(c1)c1cc4c(cc1c(=O)n3CC2)OCO4 [Compound 47, oxogalanthine lactam, reference compound]

Ki [1, 9]: 14 nM
Ki [3, 10]: 11.3 ± 2.4 nM
Ki [4, 11]: 15.2 ± 6.6 nM
SMILES: NCCCC(=O)Nc1nc2ccc(Cl)cc2c2nc(-c3ccco3)nn12 [Compound 155]

SMILES: CCOc1ccc(-c2oc3cc(OCC)cc(O)c3c(=O)c2OCC)c(OCC)c1 [Compound 7, 2',4',3,7-Tetraethoxy-5-hydroxymorin]
inhibition at 100 µM ([1]; Table 3, read-out: displacement of specific binding rA2a): < 10%
inhibition at 100 µM ([3]; Table 3): < 10%
Ki ([4]; Table 3, HEK-293 membranes, read-out: Ki hA3): 4830 ± 1400 nM
rA1/hA3 ([4]; Table 3, ratio of Ki): > 40

inhibition at 100 µM ([1]; Table 10, read-out: displacement of specific binding rA2a): < 10%
inhibition at 100 µM ([3]; Table 10): < 10%
inhibition at 100 µM ([4]; Table 10, read-out: displacement of specific binding hA3): < 10%
SMILES: COC(=O)c1c(C)nc(C)c(C(=O)OC)c1-c1ccccc1[N+](=O)[O-] [Compound 82, reference compound]

SMILES: CCCC(=O)Nc1nc2ccc(Cl)cc2c2nc(-c3ccco3)nn12 [Compound 147, 5-Butyrylamino-9-chloro-2-(2-furyl)[1,2,4]triazolo[1,5-c]quinazoline]
Ki [1, 9]: 4 nM
Ki [3, 10]: 32.5 ± 9.4 nM
rA1/hA3 [4]: 2.2
Ki [4, 11]: 14.6 ± 2.8 nM

Ki [1, 14]: 3000 ± 700 nM
Ki [3, 20]: 1200 nM
Ki [4, 15]: 1720 nM
SMILES: COc1cc2oc(-c3ccc(O)cc3)cc(=O)c2c(O)c1OC [Compound 33, cirsimaritin, reference compound]

SMILES: COc1c2ccoc2cc2oc(C=O)cc(=O)c12 [Compound 18, 4-Methoxy-7-formyl-5H-furo [3,2-g][1]-benzopyrano-5-one]
inhibition at 100 µM ([1]; Table 5, read-out: % of specific binding displaced rA2a): 25 ± 8%
inhibition at 100 µM ([3]; Table 5): < 10%
Ki [4, 16]: 88900 ± 27100 nM
rA1/hA3 ([4]; Table 5, ratio of Ki): > 2

SMILES: O=c1cc(-c2ccccc2)oc2cc(O)ccc12 [Compound 26, reference compound]
Ki ([1]; striatal membranes, read-out: K2 (rA2a)): 2680 ± 680 nM
Ki [3, 20]: 3030 ± 490 nM
inhibition at 100 µM ([4]; Table 6, read-out: % inhibition hA3): 41 ± 7%

SMILES: Oc1cc2c(cc1O)[C@@H]1c3ccc(O)c(O)c3OC[C@]1(O)C2 [Compound 50, hematoxylin, reference compound]
inhibition at 100 µM ([1]; Table 7, read-out: % of specific binding displaced rA2A): 28 ± 2%
Ki [3, 18]: 3100 ± 600 nM
inhibition at 100 µM [4, 19]: < 10%

SMILES: CCn1c2c(c3cc4c(cc3c1=O)OCO4)C(=O)CCC2 [Compound 46, reference compound]
Ki [1, 21]: 6980 ± 2210 nM
Ki [3, 18]: 7590 ± 2140 nM
inhibition at 100 µM [4, 22]: 19 ± 3%

SMILES: COc1cc2c(c(O)c1OC)c(=O)c1ccccc1n2C [Compound 51, 1-hydroxy-2,3-dimethoxy-10-methyl-9(10H)-acridinone, reference compound]
Ki [1, 21]: 6470 ± 1900 nM
Ki [3, 18]: 12700 ± 1200 nM
inhibition at 100 µM [4, 22]: 63 ± 7%

inhibition at 100 µM [1, 17]: < 10%
Ki [3, 18]: 52500 ± 3700 nM
inhibition at 100 µM [4, 19]: < 10%
SMILES: COC1C=CC23c4cc5c(cc4C[N+](C)(CC2OC(C)=O)C3C1)OCO5 (stereo not shown) [Compound 48, acetylhaemanthine methiodide, reference compound]

SMILES: O=c1cc(-c2ccc(O)cc2)oc2cc(O)cc(O)c12 [Compound 28, apigenin, reference compound]
Ki [1, 14]: 7580 ± 1230 nM
Ki [3, 20]: 3000 ± 290 nM
inhibition at 10 µM ([4]; Table 6, 10^-5 M, read-out: % inhibition hA3): 63 ± 1%

SMILES: COc1c2ccoc2cc2oc(C=Nc3ccccc3)cc(=O)c12 [Compound 24, 4-methoxy-7-(CH=N-phenyl)visnagin]
inhibition at 100 µM ([1]; Table 5, read-out: displacement of specific binding rA2a): < 10%
inhibition at 100 µM ([3]; Table 5): < 10%
rA1/hA3 ([4]; Table 5, ratio of Ki): > 20

SMILES: COc1ccc2c(c1)C(=O)[C@H](O)[C@@H](C#Cc1ccccc1)O2 (relative stereo) [Compound 16]
inhibition at 100 µM ([1]; Table 4, read-out: displacement of specific binding rA2a): < 10%
Ki ([3]; Table 4, [3H]PIA, rat brain membranes, read-out: Ki rA1): 50300 ± 17000 nM
rA1/hA3 [4]: 6.2
Ki ([4]; Table 4, HEK-293 membranes, read-out: Ki hA3): 8170 nM

SMILES: CC(C)(C)C(=O)Nc1nc2ccc(Cl)cc2c2nc(-c3ccco3)nn12 [Compound 149, 9-Chloro-2-(2-furyl)-5-trimethylacetylamino[1,2,4]triazolo [1,5-c]quinazoline]
Ki [1, 9]: 60 nM
Ki [3, 10]: 205 ± 20 nM
Ki [4, 11]: 244 ± 6 nM
rA1/hA3 ([4]; Table 15, ratio of Ki): 0.84

Ki [1, 14]: 46700 ± 2700 nM
Ki [3, 20]: 27600 ± 7500 nM
Ki [4, 15]: 2650 nM
SMILES: COc1ccc(-c2oc3cc(OC)cc(OC)c3c(=O)c2OC)c(OC)c1 [Compound 38, 2',3,4',5,7-pentamethyloxyflavone]

SMILES: CCOc1c2ccoc2cc2oc(/C=C/C=Cc3ccccc3)cc(=O)c12 [Compound 23, 4-ethoxy-7-phenylbutadienyl visnagin]
Ki [1, 12]: 167000 nM
inhibition at 100 µM ([3]; Table 5): < 10%
rA1/hA3 ([4]; Table 5, ratio of Ki): > 4
